Legend:
[1] = molecular target: baculovirus-expressed ALK (Homo sapiens, UniProt Q9UM73); experiment: ALK Kinase Assay (ELISA/TRF, PLC-γ substrate); assay type: biochemical; settings: read-out: ALK Kinase Inhibition (IC50); further: 1 µM ATP (Km level)
Outline: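 Plates coated with GST–PLC-γ fusion substrate (10 μg/mL in TBS); reaction started with 30 ng/ml ALK, run 15 minutes at 37° C. Phosphotyrosine detected by Eu-N1 PT66 antibody (1 hour, 37° C) and time-resolved fluorescence after enhancement. IC50 from sigmoidal variable-slope fit of percent inhibition versus log concentration.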

[2] = molecular target: T1, c-Met (phospho-c-Met) in A549 cells (Homo sapiens, UniProt P08581); experiment: c-Met Cellular Activity/Autophosphorylation Assay, A549 cells (HGF stimulated); assay type: cell-based; settings: 50 ng/mL HGF
T1 construct: endogenous in cells; host or cells: HT29, A549 (HGF-stimulated), GTL-16
Protocol: (§1) HT29 and GTL-16 cells were serum starved for one hour in media containing 0.05% BSA and varying concentrations of Example compounds (1-10 μM). A549 cells were serum starved overnight in media containing 0.05% BSA then treated for one hour with Example compounds followed by a 15 minute stimulation with 50 ng/mL HGF (Peprotech, Rocky Hill, N.J.), respectively. Samples were resolved by electrophoresis on a 3-8% Tris-Acetate gel (40 ma/gel) and then transferred to a nitrocellulose membrane. Membranes were blocked for one hour at room temperature in Odyssey Blocking Buffer (Licor #927-40000) diluted 1:1 with 1×TBS. Membranes were then co-incubated overnight at 4° C. with primary antibodies [total Met (Cell Signaling, #3127) and Phospho-Met (Biosource, #44-888G) 1:1000 each in Odyssey Blocking Buffer diluted 1:1 with 1×TBS-T 0.05%]. The next day, membranes were washed and co-incubated with secondary antibodies [Goat anti mouse IRDye800 (Rockland, #610-132-121) and Goat anti rabbit Alexa fluor 700 (Molecular Probes, #A21038) 1:10,000] in Odyssey Blocking Buffer diluted 1:1 with 1×TBS-T 0.05% for one hour at room temperature protected from light. Blots were then washed and read on the Odyssey Infrared Imager. Total c-Met signal was visualized at 800 nm detection and phospho-c-Met signal was visualized at 700 nm detection.

[3] = molecular target: T2, c-Met (cytoplasmic domain) (Homo sapiens, UniProt P08581); experiment: c-Met Kinase Assay (ELISA/TRF, PLC-γ substrate); assay type: biochemical; settings: 3 μM ATP (Km level); read-out: c-Met Kinase Inhibition (IC50)
T2 construct: Reactions were initiated with 30 ng/mL c-Met (cytoplasmic domain, Invitrogen Corporation #PV3143); purchased Invitrogen Corporation PV3143
Outline: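 c-Met cytoplasmic domain (30 ng/mL) phosphorylates plate-coated GST–PLC-γ for 15 min at 37 °C. Phosphotyrosine detected with Eu-labeled PT66 antibody by time-resolved fluorescence. IC50 from variable-slope sigmoidal fit of % inhibition vs log concentration.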

NPM-ALK = molecular target: T3, NPM-ALK (Homo sapiens, UniProt Q9UM73); experiment: ALK Cellular Assay (phospho-NPM-ALK immunoblot / ALK tyrosine phosphorylation ELISA); assay type: cell-based
T3 construct: a fusion protein consisting of nucleophosmin (NMP) and the intracellular domain of ALK; the other entry of the earlier key: NPM1 (P06748, Nucleophosmin)
T3 sequence (Q9UM73 with tags, fused parts or gaps): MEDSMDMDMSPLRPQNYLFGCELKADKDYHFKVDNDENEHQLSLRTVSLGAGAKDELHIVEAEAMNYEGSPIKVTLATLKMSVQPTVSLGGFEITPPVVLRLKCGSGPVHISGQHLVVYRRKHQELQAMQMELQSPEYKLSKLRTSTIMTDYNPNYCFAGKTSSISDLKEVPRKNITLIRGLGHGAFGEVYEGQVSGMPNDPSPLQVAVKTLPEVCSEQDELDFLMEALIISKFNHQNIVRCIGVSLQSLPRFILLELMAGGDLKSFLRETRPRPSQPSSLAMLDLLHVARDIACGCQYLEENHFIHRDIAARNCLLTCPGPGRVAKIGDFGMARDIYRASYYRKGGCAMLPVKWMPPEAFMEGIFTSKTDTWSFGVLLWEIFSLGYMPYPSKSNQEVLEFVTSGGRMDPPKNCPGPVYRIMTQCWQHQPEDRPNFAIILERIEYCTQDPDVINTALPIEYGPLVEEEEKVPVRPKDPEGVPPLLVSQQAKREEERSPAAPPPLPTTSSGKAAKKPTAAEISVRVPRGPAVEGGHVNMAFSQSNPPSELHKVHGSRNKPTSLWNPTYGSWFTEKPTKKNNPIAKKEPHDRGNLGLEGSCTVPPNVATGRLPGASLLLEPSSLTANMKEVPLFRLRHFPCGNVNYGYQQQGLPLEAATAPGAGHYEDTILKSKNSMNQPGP
Protocol: Immunoblotting of phospho-NPM-ALK and total NPM-ALK from cell lysates was carried out according to the protocols provided by the antibody suppliers. In brief, after treatment of Example compounds, cells were lysed in Frak lysis buffer [10 mM Tris, pH 7.5, 1% Triton X-100, 50 mM sodium chloride, 20 mM sodium fluoride, 2 mM sodium pyrophosphate, 0.1% BSA, plus freshly prepared 1 mM activated sodium vanadate, 1 mM dithiothreitol (#165680050, ARCOS Organics, Geel, Belgium), and 1 mM PMSF (#837091, Boehringer Mannheim Biochemicals, Indianapolis, Ind.), protease inhibitors cocktail III (#539134-1Set, Calbiochem, 1:100 dilution)]. After brief sonication, the lysates were cleared by centrifugation, mixed with sample buffer and subjected to SDS-PAGE. Following transfer to membranes, the membranes were blotted with either rabbit phospho-NPM-ALK(Y664) (Cat^#3341) or ALK antibody (Cat^#3342) from Cell Signaling Technology (Beverly, Mass.), and then the HRP-conjugated goat anti-rabbit antibodies (Santa Cruz, Calif.) after washed in TBS/0.2% Tween-20. The protein bands were visualized with ECL Western Blotting detection reagents (RPN2106, Amersham Biosciences, Buckinghamshire, UK) and quantitated with gel-pro analyzer 3.1 software.
To measure ALK tyrosine phosphorylation in cells with an ELISA assay, fluoronunc plates (Cat^#437796, Nalge Nunc, Rochester, N.Y.) were pre-coated with goat anti-mouse IgG, and incubated with the capture mouse ALK antibody (Cat^#35-4300, Zymed, Seattle, Wash.) diluted 1:1000 in Superblock (Pierce, Rockford, Ill.). Following blocking, cell lysates were added to plates and incubated overnight at 4° C. Plates were incubated with the detecting antibody, anti-phospho-ALK (Y664) (Cell Signaling Technology), diluted at 1:2000, followed by incubation with goat anti-rabbit-IgG alkaline phosphatase to amplify the detection. Wells were exposed to the fluorogenic substrate 4-MeUP (#3368-04-5, Calbiochem) and the signal quantified using a CytoFluor® (series 4000) Fluorescence Multi-Well Plate Reader (Applied Biosystems, Foster City, Calif.).

[4] = molecular target: T4, c-Met (phospho-c-Met) in HT29 cells (Homo sapiens, UniProt P08581); experiment: c-Met Cellular Activity/Autophosphorylation Assay, HT29 cells; assay type: cell-based; settings: for inhibition at 1 µM: HT-29, 1 μM compound, read-out: c-Met autophosphorylation inhibition score, HT29 Cells (1 μM); for inhibition at 3 µM: HT-29, 3 μM compound, read-out: c-Met autophosphorylation inhibition score, HT29 Cells (3 μM)
T4 construct: endogenous in cells; host or cells: HT29, A549 (HGF-stimulated), GTL-16
T4 sequence (P08581 25-1390): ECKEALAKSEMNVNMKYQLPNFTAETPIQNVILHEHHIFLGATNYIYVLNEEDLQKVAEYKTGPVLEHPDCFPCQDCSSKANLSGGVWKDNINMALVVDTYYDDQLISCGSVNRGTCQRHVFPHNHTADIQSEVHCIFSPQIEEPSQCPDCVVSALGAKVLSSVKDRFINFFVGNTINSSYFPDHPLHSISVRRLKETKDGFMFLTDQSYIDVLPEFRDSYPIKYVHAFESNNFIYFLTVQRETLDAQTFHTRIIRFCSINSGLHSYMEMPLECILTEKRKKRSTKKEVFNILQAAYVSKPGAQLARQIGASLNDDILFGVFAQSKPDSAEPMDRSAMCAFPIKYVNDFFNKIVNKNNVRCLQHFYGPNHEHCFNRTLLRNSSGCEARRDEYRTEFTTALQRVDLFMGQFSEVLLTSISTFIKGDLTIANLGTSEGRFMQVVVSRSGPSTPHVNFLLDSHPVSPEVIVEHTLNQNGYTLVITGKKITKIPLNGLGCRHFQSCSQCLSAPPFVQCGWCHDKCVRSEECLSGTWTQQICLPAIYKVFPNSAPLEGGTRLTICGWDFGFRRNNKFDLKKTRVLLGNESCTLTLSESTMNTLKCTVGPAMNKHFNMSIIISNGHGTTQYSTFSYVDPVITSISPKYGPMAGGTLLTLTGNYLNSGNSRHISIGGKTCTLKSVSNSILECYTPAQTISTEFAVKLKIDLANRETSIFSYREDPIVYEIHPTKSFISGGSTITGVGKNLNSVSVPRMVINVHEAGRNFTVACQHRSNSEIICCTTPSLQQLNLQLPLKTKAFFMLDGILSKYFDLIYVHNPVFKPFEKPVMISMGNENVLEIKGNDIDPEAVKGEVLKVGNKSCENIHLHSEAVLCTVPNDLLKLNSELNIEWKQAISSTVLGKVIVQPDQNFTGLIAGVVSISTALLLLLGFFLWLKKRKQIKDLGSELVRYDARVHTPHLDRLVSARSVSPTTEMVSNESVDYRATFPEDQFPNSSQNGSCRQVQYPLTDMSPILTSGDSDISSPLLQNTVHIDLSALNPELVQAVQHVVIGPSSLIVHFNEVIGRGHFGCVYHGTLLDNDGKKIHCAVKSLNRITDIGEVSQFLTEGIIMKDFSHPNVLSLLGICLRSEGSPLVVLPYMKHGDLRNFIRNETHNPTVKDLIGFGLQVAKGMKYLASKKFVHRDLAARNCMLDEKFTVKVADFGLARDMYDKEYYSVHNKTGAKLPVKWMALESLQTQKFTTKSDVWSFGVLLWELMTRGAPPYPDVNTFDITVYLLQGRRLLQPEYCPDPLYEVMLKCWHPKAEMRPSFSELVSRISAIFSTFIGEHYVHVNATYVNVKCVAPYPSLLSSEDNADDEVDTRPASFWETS
Protocol: as §1

[5] = molecular target: T5, c-Met (phospho-c-Met) in GTL-16 cells (Homo sapiens, UniProt P08581); experiment: c-Met Cellular Activity/Autophosphorylation Assay, GTL-16 cells; assay type: cell-based; settings: for inhibition at 1 µM: 1 μM compound, read-out: c-Met autophosphorylation inhibition score, GTL-16 Cells (1 μM); for inhibition at 3 µM: 3 μM compound, read-out: c-Met autophosphorylation inhibition score, GTL-16 Cells (3 μM)
T5 construct: endogenous in cells; host or cells: HT29, A549 (HGF-stimulated), GTL-16
T5 sequence (P08581 25-1390): as above
Protocol: as §1

baculovirus-expressed ALK, sequence (Q9UM73 19-1620): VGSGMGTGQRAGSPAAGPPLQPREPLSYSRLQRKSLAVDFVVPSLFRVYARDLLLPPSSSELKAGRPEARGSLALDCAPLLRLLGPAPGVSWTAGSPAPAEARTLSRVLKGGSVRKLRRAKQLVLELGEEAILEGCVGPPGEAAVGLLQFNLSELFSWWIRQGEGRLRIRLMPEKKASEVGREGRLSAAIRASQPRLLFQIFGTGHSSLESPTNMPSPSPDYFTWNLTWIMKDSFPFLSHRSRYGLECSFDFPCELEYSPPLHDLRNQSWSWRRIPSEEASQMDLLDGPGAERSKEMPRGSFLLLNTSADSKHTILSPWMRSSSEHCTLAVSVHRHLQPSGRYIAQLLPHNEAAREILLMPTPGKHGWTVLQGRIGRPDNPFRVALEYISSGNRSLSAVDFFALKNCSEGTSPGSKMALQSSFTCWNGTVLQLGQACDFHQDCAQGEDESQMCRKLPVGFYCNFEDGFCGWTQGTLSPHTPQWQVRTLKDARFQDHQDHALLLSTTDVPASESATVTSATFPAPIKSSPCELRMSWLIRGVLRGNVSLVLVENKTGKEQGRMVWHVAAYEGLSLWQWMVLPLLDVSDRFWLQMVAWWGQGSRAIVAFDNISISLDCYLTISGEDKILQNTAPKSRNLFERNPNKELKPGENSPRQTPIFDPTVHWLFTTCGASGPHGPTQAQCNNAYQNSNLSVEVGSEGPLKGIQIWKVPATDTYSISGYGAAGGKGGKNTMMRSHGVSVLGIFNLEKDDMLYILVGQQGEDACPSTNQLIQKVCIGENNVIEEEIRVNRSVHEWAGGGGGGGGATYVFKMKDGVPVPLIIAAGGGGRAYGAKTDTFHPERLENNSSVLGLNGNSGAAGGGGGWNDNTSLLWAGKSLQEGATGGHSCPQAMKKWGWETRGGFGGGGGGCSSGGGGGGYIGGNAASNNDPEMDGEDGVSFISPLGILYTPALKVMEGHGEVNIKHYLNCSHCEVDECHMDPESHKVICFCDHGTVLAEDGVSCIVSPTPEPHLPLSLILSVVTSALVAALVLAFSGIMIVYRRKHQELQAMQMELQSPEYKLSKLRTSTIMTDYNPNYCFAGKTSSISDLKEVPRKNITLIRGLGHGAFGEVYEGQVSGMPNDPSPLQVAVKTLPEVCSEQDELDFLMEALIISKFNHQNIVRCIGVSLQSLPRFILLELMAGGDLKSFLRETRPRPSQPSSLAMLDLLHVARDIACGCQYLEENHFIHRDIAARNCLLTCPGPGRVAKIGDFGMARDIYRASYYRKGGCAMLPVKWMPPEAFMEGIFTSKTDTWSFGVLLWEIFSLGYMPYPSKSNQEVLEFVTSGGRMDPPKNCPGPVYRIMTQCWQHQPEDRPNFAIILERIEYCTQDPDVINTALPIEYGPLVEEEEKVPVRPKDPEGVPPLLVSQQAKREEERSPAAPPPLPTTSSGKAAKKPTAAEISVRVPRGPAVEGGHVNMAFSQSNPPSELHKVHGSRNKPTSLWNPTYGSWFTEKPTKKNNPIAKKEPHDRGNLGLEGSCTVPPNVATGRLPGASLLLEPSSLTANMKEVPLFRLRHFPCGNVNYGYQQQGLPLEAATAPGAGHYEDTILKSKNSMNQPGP

Compound | IC50 [1] | inhibition at 1 µM ([2]; 1 μM compound, read-out: c-Met autophosphorylation inhibition score, A549 Cells (1 μM)) | inhibition at 3 µM ([2]; 3 μM compound, read-out: c-Met autophosphorylation inhibition score, A549 Cells (3 μM)) | IC50 [3] | IC50 (NPM-ALK) | melting point | inhibition at 1 µM [4] | inhibition at 3 µM [4] | inhibition at 1 µM [5] | inhibition at 3 µM [5]
O=C1CNc2ncc(-c3ccc(C(=O)N4CCC[C@H]4CN4CCCC4)cc3)cc2N1Cc1cc(Cl)ccc1Cl [Example 157, S-1-(2,5-Dichlorobenzyl)-7-[4-(2-[(pyrrolidin-1-yl)methyl]pyrrolidine-1-carbonyl)phenyl]-3,4-dihydro-1H-pyrido[2,3-b]pyrazin-2-one] | < 100 nM | 0 to 25% | 0 to 25% | 100 to 1000 nM | 251 to 500 nM | 180 °C | 0 to 25% | 26 to 50% | – | –
CN1CCN(c2ccc(-c3cnc4c(c3)N(Cc3c(F)ccc(F)c3Cl)CCN4)cn2)CC1 [Example 185, 1-(2-Chloro-3,6-difluorobenzyl)-7-[6-(4-methylpiperazin-1-yl)pyridin-3-yl]-1,2,3,4-tetrahydropyrido[2,3-b]pyrazine] | – | – | – | – | – | – | 51 to 75% | 76 to 100% | 0 to 25% | 0 to 25%
Fc1ccc(F)c(CN2CCNc3ncc(-c4ccnc(N5CCOCC5)c4)cc32)c1Cl [Example 186, 1-(2-Chloro-3,6-difluorobenzyl)-7-(2-morpholin-4-yl-pyridin-4-yl)-1,2,3,4-tetrahydropyrido[2,3-b]pyrazine] | < 100 nM | – | – | 1000 to 10000 nM | ≤ 250 nM | 157 °C | 26 to 50% | 26 to 50% | 0 to 25% | 0 to 25%

— patent US7601716B2, “Pyridopyrazines and derivatives thereof as ALK and c-Met inhibitors” (Cephalon, Inc., priority 2006, dated 2009)
